Experimental data from patent US6403808B1, “Selective 5-HT6 receptor ligands” (priority 2001, dated 2002).
Structures can show the parent of a compound that is named as a salt. Where two headings read alike, the source gives them in different places.

Tests used:
[1] = molecular target: hD1 (Homo sapiens, UniProt P21728); experiment: NIMH PDSP selectivity binding, hD1
Description: (§1) . […] NET and SERT represent the norepinephrine and serotonin transporters.

[2] = molecular target: rD2 (Rattus norvegicus, UniProt P61169); experiment: NIMH PDSP selectivity binding, rD2
Sequence of rD2 (P61169 whole entry): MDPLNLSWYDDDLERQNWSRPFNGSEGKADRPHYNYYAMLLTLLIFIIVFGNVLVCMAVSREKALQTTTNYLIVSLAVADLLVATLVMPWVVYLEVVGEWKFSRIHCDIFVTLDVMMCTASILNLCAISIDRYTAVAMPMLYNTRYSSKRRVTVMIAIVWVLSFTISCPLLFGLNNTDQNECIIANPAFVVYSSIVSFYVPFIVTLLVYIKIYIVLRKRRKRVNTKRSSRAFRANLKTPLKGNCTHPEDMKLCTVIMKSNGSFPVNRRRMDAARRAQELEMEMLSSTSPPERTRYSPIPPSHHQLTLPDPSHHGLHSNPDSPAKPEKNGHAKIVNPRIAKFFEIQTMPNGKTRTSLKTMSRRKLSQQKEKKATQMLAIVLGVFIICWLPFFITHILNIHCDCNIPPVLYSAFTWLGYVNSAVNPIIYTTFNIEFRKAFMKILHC
Description: as §1

[3] = molecular target: rD3 (Rattus norvegicus, UniProt P19020); experiment: NIMH PDSP selectivity binding, rD3
Sequence of rD3 (P19020 whole entry): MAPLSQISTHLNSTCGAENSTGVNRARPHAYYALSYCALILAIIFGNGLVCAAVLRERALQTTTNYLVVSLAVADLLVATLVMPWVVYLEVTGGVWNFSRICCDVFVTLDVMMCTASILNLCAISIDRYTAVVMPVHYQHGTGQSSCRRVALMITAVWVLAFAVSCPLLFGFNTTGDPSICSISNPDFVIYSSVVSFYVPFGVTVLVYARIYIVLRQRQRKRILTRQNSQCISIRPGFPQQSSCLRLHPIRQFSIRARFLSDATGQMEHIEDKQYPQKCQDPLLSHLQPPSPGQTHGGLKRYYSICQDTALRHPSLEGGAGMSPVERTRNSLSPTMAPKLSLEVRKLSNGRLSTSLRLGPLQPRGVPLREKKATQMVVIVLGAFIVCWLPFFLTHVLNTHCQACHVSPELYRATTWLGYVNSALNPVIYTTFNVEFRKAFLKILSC
Description: as §1

[4] = molecular target: T1, rD4 (Rattus norvegicus, UniProt P30729); experiment: NIMH PDSP selectivity binding, rD4
T1 sequence (P30729 1-387): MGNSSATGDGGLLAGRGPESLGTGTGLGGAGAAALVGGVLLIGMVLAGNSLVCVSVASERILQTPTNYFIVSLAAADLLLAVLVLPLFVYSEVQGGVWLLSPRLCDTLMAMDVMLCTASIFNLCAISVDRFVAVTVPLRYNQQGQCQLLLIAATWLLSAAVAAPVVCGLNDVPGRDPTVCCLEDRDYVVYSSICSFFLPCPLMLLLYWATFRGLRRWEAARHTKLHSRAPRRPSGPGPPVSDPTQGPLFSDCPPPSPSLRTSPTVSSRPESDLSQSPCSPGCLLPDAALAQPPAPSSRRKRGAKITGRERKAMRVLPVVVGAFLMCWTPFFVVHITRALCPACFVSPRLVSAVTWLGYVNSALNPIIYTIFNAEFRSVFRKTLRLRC
Description: as §1

[5] = molecular target: hD5 (Homo sapiens, UniProt P21918); experiment: NIMH PDSP selectivity binding, hD5
Sequence of hD5 (P21918 whole entry): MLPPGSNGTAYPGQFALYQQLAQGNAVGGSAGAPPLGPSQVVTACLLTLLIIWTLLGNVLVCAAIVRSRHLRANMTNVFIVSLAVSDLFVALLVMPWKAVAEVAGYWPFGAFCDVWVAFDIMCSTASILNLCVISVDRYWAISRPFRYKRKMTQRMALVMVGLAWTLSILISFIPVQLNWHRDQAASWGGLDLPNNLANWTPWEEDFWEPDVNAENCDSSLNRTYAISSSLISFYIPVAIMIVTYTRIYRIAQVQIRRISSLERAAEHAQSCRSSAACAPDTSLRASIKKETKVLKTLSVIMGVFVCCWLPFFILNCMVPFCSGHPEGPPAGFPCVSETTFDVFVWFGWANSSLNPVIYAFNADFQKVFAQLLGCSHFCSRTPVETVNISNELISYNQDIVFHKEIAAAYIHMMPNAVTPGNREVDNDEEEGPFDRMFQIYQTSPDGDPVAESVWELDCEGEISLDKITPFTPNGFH
Description: as §1

[6] = molecular target: T2, human 5-HT6 (Homo sapiens, UniProt P50406); experiment: biochemical; format: binding
T2 construct: expressed in transfected cells; host or cells: HEK 293
T2 sequence (P50406 whole entry): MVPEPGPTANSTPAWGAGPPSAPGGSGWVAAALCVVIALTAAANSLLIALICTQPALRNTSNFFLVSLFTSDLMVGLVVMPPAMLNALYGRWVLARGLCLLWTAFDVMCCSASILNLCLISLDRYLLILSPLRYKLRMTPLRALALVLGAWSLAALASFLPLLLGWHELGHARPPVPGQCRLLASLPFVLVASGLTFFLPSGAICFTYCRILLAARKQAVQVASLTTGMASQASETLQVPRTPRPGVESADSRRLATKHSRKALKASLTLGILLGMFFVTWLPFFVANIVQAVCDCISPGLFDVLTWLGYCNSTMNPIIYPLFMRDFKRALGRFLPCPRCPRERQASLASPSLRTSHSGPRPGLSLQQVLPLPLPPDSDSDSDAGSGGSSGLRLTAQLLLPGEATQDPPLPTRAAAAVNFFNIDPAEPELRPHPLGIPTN

[7] = molecular target: T3, 5-HT3 receptors (Homo sapiens, UniProt P46098); experiment: Affinity at 5-HT3 receptors; format: binding
T3 sequence (P46098 24-478): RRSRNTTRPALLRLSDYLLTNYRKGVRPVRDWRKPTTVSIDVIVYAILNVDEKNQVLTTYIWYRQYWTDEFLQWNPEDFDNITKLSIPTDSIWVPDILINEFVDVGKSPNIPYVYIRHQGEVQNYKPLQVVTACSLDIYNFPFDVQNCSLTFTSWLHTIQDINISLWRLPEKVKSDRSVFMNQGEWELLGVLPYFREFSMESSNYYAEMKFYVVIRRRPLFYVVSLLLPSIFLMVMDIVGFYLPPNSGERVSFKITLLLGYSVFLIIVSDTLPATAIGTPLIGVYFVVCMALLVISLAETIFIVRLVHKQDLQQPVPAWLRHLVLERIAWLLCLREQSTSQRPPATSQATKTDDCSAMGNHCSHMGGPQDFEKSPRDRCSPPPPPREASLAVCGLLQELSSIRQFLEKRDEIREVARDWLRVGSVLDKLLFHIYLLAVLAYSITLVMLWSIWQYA

[8] = molecular target: T4, Human 5-HT6 receptors stably expressed in 293 HEK cells (Homo sapiens, UniProt P50406); experiment: cAMP activation assay (adenylate cyclase activity); format: cell-based; conditions: 5-HT6 receptor
T4 construct: expressed in transfected cells; host or cells: HEK 293
T4 sequence (P50406 whole entry): as the sequence (P50406 whole entry) above
Protocol: Human 5-HT6 receptors stably expressed in 293 HEK cells were grown in 24-well plates to near confluence and 18 h prior to the assay the medium was replaced with DMEM containing dialyzed 10% Fetal Calf Serum. For the assay, the medium was aspirated and replaced with fresh DMEM without serum and incubated with various concentrations of compounds of the invention in a total volume of 0.5 ml for 15 min. The assay was terminated by aspiration and the addition of 10% trichloroacetic acid (TCA). The TCA extract was used for cAMP determinations. (Data represent the mean of N=4 separate determinations). Results of cAMP activation by various compounds of the invention are shown in the attached Drawing of FIG. 1.

Sequence of hD1 (P21728 whole entry): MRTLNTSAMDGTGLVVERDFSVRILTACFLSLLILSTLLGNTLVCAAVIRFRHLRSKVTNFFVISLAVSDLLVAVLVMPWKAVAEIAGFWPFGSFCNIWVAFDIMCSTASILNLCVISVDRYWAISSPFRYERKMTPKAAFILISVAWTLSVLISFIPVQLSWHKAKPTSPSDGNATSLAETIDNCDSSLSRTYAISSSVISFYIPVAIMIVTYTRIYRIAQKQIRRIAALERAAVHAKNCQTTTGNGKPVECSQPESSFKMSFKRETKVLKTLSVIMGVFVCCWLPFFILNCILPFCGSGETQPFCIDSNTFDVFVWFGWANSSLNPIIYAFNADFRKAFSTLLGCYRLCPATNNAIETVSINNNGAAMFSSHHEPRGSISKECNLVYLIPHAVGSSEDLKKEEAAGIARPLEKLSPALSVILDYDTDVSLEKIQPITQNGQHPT

SMILES: CCc1[nH]c2ccc(OC)cc2c1CCN(C)C [Compound B, 2-ethyl-5-methoxy-N,N-dimethyltryptamine maleate]
- Ki [1]: > 10 µM
- Ki [2]: > 10 µM
- Ki [3]: > 10 µM
- Ki [4]: > 10 µM
- Ki [5]: > 10 µM

SMILES: COc1ccc2[nH]c(-c3ccccc3)c(CCN(C)C)c2c1 [Compound D, 5-methoxy-2-phenyl-N,N-dimethyltryptamine oxalate]
- Ki ([1]; hD1, read-out: Ki): ≥ 10 µM
- Ki ([2]; rD2, read-out: Ki): ≥ 10 µM
- Ki ([4]; rD4, read-out: Ki): ≥ 10 µM

SMILES: COc1ccc2[nH]c(C)c(CCN)c2c1 [5-methoxy-2-methyltryptamine, reference compound]
- affinity for the 5-HT6 receptor (in words) [6]: affinity comparable to 2-methyl-5-HT
- affinity for 5-HT3 receptors (in words) [7]: lacks affinity

SMILES: COc1ccc2[nH]c(C)c(CCN(C)C)c2c1 [Compound A, 2-methyl-5-methoxy-N,N-dimethyltryptamine]
- Ki [1]: > 10 µM
- Ki [2]: > 10 µM
- Ki [3]: > 10 µM
- Ki [4]: > 10 µM
- Ki [5]: > 10 µM

SMILES: COc1ccc2[nH]c(-c3ccccc3)c(CCN)c2c1 [5-methoxy-2-phenylotryptamine]
- affinity for the 5-HT6 receptor (in words) [6]: high affinity
- effect on adenylate cyclase activity (in words) [8]: antagonist to 5-HT stimulated adenylate cyclase activity

SMILES: Cc1[nH]c2ccccc2c1CCN(C)C [2-methyl-N,N-dimethyltryptamine]
- Ki ([6]; read-out: affinity for the 5-HT6 receptor, Ki): 0.308 µM

SMILES: Cc1[nH]c2ccc(O)cc2c1CCN [2-methyl-5-HT, reference compound]
- affinity for the 5-HT6 receptor (in words) [6]: high affinity
- affinity for the 5-HT6 receptor (in words) ([6]; listed as 2-methyly-5-HT): affinity equivalent to that of the parent compound
- greater affinity at 5-HT6 than at 5-HT3 receptors ([7]; 5-HT6 over 5-HT3): 20 fold

SMILES: COc1ccc2c(c1)c(CCN(C)C)c1n2CCCC1=O [I, 6,7,8,9-tetrahydro-2-methoxy-10-(N,N-dimethylaminoethyl)pyridol[1,2-a]indole-9-one Oxalate]
- Ki ([6]; human 5-HT6 in HEK 293, [3H]LSD, third table, read-out: Ki): 0.084 µM
